In patent US20190284162A1, “USE OF A DIFLUORO-(2-HYDROXYPROPYL)PYRIDINE COMPOUND AS A FUNGICIDE FOR CONTROL OF PHYTOPATHOGENIC FUNGI OF CORN” (Dow AgroSciences LLC, priority 2016, published 2019):

Tests used:
Assay type in all cases: in vivo
[1] = test system: Cercospora zeae-maydis; test: Field assessment of Cercospora zeae-maydis (CERCZM), grey leaf spot, in corn
Excerpt: Field Assessment of Cercospora zeae-Maydis (CERCZM) in Corn:
(§1) A fungicidal treatment containing Compound I, applied alone in an EC formulation at 100 grams of active ingredient per hectare (g ai/ha) and tank mixed with an adjuvant (Agnique BP-420, 50% w/w at 0.3% v/v), was sprayed on corn plants (ZEAMX, Formula variety) twice at the growth stages 18 (8 leaves unfolded, application A) and 39 (stem elongation; prior to tassle emergence, application B) at rates of 25, 50, 100, 125 and 150 g ai/ha. The experimental plots were inoculated with grey leaf spot 24 hr after each application. The treatment was part of an experimental trial designed as a randomized complete block with four replications and a plot of approximately 1×3 m. Compound I was applied at water volume of 200 L/ha, using a backpack precision plot sprayer (BKPCKAIR, 2 and 3 m band width, Flat Fan XR110.015 Nozzle) and pressurized at 45 psi.
(§2) Disease severity (percentage of visual diseased foliage on whole plot) was assessed six times (15-49 days after application B, DAAB). The disease infection was recorded following EPPO PP1/26 guideline prescriptions. Area under the disease progress curve (AUDPC) was calculated for each plot using the sets of recorded severity data. Relative AUDPC (% control based on AUDPC) was calculated as percent of the nontreated control.

[2] = test system: Exserohilum turcicum; test: Field assessment of Exserohilum turcicum (SETOTU) in corn
Excerpt: Field Assessment of Exserohilum turcicum (SETOTU) in Corn: A fungicidal treatment containing Compound I, tank mixed with an adjuvant (Agnique BP-420, 50% w/w at 0.3% v/v), was sprayed on corn plants once at the growth stage 51 (beginning tassel emergence) at rates of 50, 75, 100, and 150 g ai/ha. The treatment was part of an experimental trial designed as a randomized complete block with four replications. Compound I was applied at water volume of 140 L/ha, using a backpack precision plot sprayer. Disease severity was assessed as combined percent visual necrosis on leaves ear-1, ear and ear+1. Severity was assessed twice at 24 DAA1 (days after application 1) and 32 DAA1.

[3] = test system: Puccinia polysora; test: Field assessment of Puccinia polysora (PUCCPY), brown rust, in corn
Excerpt: Field Assessment of Puccinia polysora (PUCCPY) in Corn:
as §1, with “P30R50” for “Formula”, “brown rust” for “grey leaf spot”
as §2

[4] = test system: Phaeosphaeria maydis; test: Field assessment of Phaeosphaeria maydis (PHSPMA), phaeosphaeria leaf spot, in corn
Excerpt: Field Assessment of Phaeosphaeria maydis (PHSPMA) in Corn:
as §1, with “P30R50” for “Formula”, “phaeosphaeria” for “grey”
as §2

[5] = 25 g ai/ha, with adjuvant Agnique BP-420, two applications
[6] = 50 g ai/ha, with adjuvant Agnique BP-420, two applications
[7] = 100 g ai/ha, with adjuvant Agnique BP-420, two applications
[8] = 100 g ai/ha, without adjuvant, two applications
[9] = 125 g ai/ha, with adjuvant Agnique BP-420, two applications
[10] = 150 g ai/ha, with adjuvant Agnique BP-420, two applications

N#Cc1ccc(Oc2ccc(C(F)(F)C(O)(Cn3ncnc3S)c3ccc(F)cc3F)nc2)cc1 (centres unmarked) [Compound I, 4-((6-(2-(2,4-difluorophenyl)-1,1-difluoro-2-hydroxy-3-(5-mercapto-1H-1,2,4-triazol-1-yl)propyl)pyridin-3-yl)oxy)benzonitrile]
Disease (% Control) CERCZM, based on AUDPC [1, 5]: B (51-75)
Disease (% Control) CERCZM, based on AUDPC [1, 6]: B (51-75)
Disease (% Control) CERCZM, based on AUDPC [1, 7]: B (51-75)
Disease (% Control) CERCZM, based on AUDPC [1, 8]: C (26-50)
Disease (% Control) CERCZM, based on AUDPC [1, 9]: A (76-100)
Disease (% Control) CERCZM, based on AUDPC [1, 10]: A (76-100)
Disease severity: combined visual necrosis on leaves ear-1, ear and ear+1 ([2]; 50 g ai/ha, 24 DAA1, tank mixed with Agnique BP-420, untreated control 36.1): 46.5%
Disease severity: combined visual necrosis on leaves ear-1, ear and ear+1 ([2]; 50 g ai/ha, 32 DAA1, tank mixed with Agnique BP-420, untreated control 50.4): 45.5%
Disease severity: combined visual necrosis on leaves ear-1, ear and ear+1 ([2]; 75 g ai/ha, 24 DAA1, tank mixed with Agnique BP-420, untreated control 36.1): 45.0%
Disease severity: combined visual necrosis on leaves ear-1, ear and ear+1 ([2]; 75 g ai/ha, 32 DAA1, tank mixed with Agnique BP-420, untreated control 50.4): 44.2%
Disease severity: combined visual necrosis on leaves ear-1, ear and ear+1 ([2]; 100 g ai/ha, 24 DAA1, tank mixed with Agnique BP-420, untreated control 36.1): 37.2%
Disease severity: combined visual necrosis on leaves ear-1, ear and ear+1 ([2]; 100 g ai/ha, 32 DAA1, tank mixed with Agnique BP-420, untreated control 50.4): 31.6%
Disease severity: combined visual necrosis on leaves ear-1, ear and ear+1 ([2]; 150 g ai/ha, 24 DAA1, tank mixed with Agnique BP-420, untreated control 36.1): 37.9%
Disease severity: combined visual necrosis on leaves ear-1, ear and ear+1 ([2]; 150 g ai/ha, 32 DAA1, tank mixed with Agnique BP-420, untreated control 50.4): 33.3%
Disease (% Control) PUCCPY, based on AUDPC [3, 5]: A (76-100)
Disease (% Control) PUCCPY, based on AUDPC [3, 6]: A (76-100)
Disease (% Control) PUCCPY, based on AUDPC [3, 7]: A (76-100)
Disease (% Control) PUCCPY, based on AUDPC [3, 8]: A (76-100)
Disease (% Control) PUCCPY, based on AUDPC [3, 9]: A (76-100)
Disease (% Control) PUCCPY, based on AUDPC [3, 10]: A (76-100)
Disease (% Control) PHSPMA, based on AUDPC [4, 5]: B (51-75)
Disease (% Control) PHSPMA, based on AUDPC [4, 6]: B (51-75)
Disease (% Control) PHSPMA, based on AUDPC [4, 7]: A (76-100)
Disease (% Control) PHSPMA, based on AUDPC [4, 8]: B (51-75)
Disease (% Control) PHSPMA, based on AUDPC [4, 9]: A (76-100)
Disease (% Control) PHSPMA, based on AUDPC [4, 10]: A (76-100)
